Test results taken from publication PMC3174134, “Lucanthone and Its Derivative Hycanthone Inhibit Apurinic Endonuclease-1 (APE1) by Direct Protein Binding” (PLoS ONE, 2011).
Read-outs that look alike come from different tables or passages of the source.

Columns and labels:
APE1 [1] = biological target: T1, APE1 (Homo sapiens, UniProt P27695); experiment: APE1 expression and cleavage in U251 1-5 overexpressor cells pretreated with cycloheximide, Western blot; assay type: cell-based; conditions: for Cleavage of APE1 (25 kDa fragment): 10 µg/ml cycloheximide 4 h, then 25-100 µM drug 2 h
T1 sequence (P27695 whole entry, the tested form may be a part): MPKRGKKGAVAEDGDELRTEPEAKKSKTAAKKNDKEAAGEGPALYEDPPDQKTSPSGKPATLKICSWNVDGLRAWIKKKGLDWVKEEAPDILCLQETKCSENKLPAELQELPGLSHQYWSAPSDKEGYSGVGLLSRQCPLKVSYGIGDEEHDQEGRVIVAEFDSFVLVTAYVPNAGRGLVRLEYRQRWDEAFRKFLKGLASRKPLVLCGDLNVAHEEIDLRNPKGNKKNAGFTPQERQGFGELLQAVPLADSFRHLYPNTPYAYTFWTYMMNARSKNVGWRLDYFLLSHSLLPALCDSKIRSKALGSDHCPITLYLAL
Description: Total purified protein concentration was determined by the ratio of A280/A260. 250 ng of APE1 treated with lucanthone or hycanthone (0.05–100 µM) for 2 h at 37°C in final volume of 30 µl were mixed with an equal volume of gel loading buffer (0.001% bromophenol blue, 4% SDS, 10% 2-ME, 20% glycerol, and 125 mM Tris pH 6.8) and denatured at 95°C for 5 min. Total protein concentration in cell extracts was determined using the Bradford assay (BioRad, Hercules, CA) and 25 µg of total protein from soluble or insoluble cell fractions were mixed with an equal volume of gel loading buffer (0.001% bromophenol blue, 4% SDS, 10% 2-ME, 20% glycerol, and 125 mM Tris pH 6.8) and denatured at 95°C for 5 min. This mixture was separated by SDS-PAGE (4% stacking, 7.5% resolving gel) for 2–3 h at 40 mA on a BioRad MiniPROTEAN II Electrophoresis Cell. To detect proteins, proteins were transferred onto a trans-Blot nitrocellulose membrane (0.45 µm; BioRad) overnight at 4°C at 15 mA in standard Tris-Glycine buffer containing 20% ethanol. Membranes were probed using polyclonal anti-APE1 or polyclonal anti-©-tubulin at 1/1,000 dilution in TTBS (0.1% Tween 20 in TBS (pH 7.5)) with secondary, anti-rabbit HRP-conjugated antibody used at 1/30,000 dilution to detect APE1 and ©-tubulin protein control. Chemi-luminescence was developed using an ECL kit according to the manufacturer's instructions and detected by exposing the blot to HyperfilmECL for 30 s–3 min. (GE Healthcare Biosciences, Piscataway, NJ).
Western blotting was carried out by 7.5% SDS-PAGE of cell extracts (20 µg total protein per lane) either from APE1 overexpresser clone 5 pretreated with 2.5–200 µM concentration of lucanthone/CRT0044876 or recombinant APE1 for 2 h at 37°C in presence of protease inhibitor cocktail (2 tablets (Roche, # 11836153001) containing mixture of several protease inhibitors with broad inhibitory specificity for serine, cysteine and metalloproteases in all systems, dissolved in 20 ml of APE1 buffer). […]

APE1 [2] = biological target: T1, APE1; experiment: Direct binding by surface plasmon resonance (BIACORE 2000), APE1 immobilized on CM5 chip; set-up: the full length APE1 protein was successfully expressed and purified; made in house; host or cells: E. coli BL21/DE3; conditions: for kd: full length APE1; for kon: pH 7.4, read-out: ka
Description: APE1 (and its hydrophobic mutants) and lucanthone/hycanthone reaction stoichiometry was studied using surface plasmon resonance on a BIACORE 2000 apparatus (Biacore, GE Healthcare, Sweden) at the protein core facility in SUNYSB, to determine the affinity of the two drugs for APE1 (or NΔ40 APE1). APE1 and its mutants (10 µg) (RUmax values were 9000 RU units after immobilization) were immobilized on a CM5 chip by amine coupling (as per the manufacturer's instructions) and binding experiments were performed at 20°C in 10 mM HBS-EP buffer, pH 7.4. Lucanthone (or hycanthone) (20–700 µM) was injected as analyte over the sensor chip in HBS-EP buffer at 10 µl/min. The regeneration was achieved by 10 mM glycine-HCl, pH 3.0 between each analyte (drug) concentration.

APE1 [3] = biological target: T1, APE1; experiment: Far UV circular dichroism of APE1 with drug (CDSSTR/DICHROWEB); set-up: the full length APE1 protein was successfully expressed and purified; made in house; host or cells: E. coli BL21/DE3; Helix 1 / Helix 2 / Strand 1 / Strand 2 / Turns / Unordered: unit not given here; conditions: APE1 plus drug (1 mg/ml, 50 µl), 37°C, 60 min
Description: APE1 and its mutant proteins (10 mg/ml), 50 µl (500 µg) (14 µM) in APE1 buffer (50 mM HEPES, pH 7.4, 150 mM KCl, 5 mM MgCl2), were mixed with lucanthone/hycanthone (1 mg/ml), 50 µl (50 µg), 140 µM and incubated at 37°C for 60 min and far UV-CD spectra were recorded at NSLS U11 beam line at BNL. Lucanthone and hycanthone were also scanned as drug controls. The scanning parameters used were a 0.001 cm path length quartz cell, scanning wavelengths from 260 to 170 nm, bandwidth of 0.5 nm, digital integration time of 1 s, time constant of 200 ms, step size of 1 nm, and sensitivity of 200 µV. The data were corrected with blank subtraction from APE1 buffer alone. The secondary structure for APE1 with or without lucanthone or hycanthone was analyzed using CDSSTR program DICHROWEB [38].

Structure (SMILES)	Cleavage of APE1 (25 kDa fragment) (APE1 [1])	APE1:drug stoichiometry (APE1 [2])	RUmax (APE1 [2])	kd (APE1 [2])	kon (APE1 [2])	Av. helix length per segment (APE1 [3])	Av. strand length per segment (APE1 [3])	Helix 1 (APE1 [3])	Helix 2 (APE1 [3])	Strand 1 (APE1 [3])	Strand 2 (APE1 [3])	Turns (APE1 [3])	Unordered (APE1 [3])	further results
CCN(CC)CCNc1ccc(CO)c2sc3ccccc3c(=O)c12 [hycanthone]	induce cleavage of APE1	~1	90 RU	8.9e-07 s⁻¹	90 M⁻¹ s⁻¹	4.020	5.799	0.00	0.069	0.267	0.141	0.124	0.399	Kd (APE1 [2]; BIACORE, 20°C, HBS-EP pH 7.4, read-out: KD (affinity constant)): 10 nM; RUligand (APE1 [2]; Conc 22 µM): 24 RU; RUligand (APE1 [2]; Conc 44 µM): 45 RU; RUligand (APE1 [2]; Conc 88 µM): 78 RU; RUligand (APE1 [2]; Conc 176 µM): 79 RU; RUligand (APE1 [2]; Conc 352 µM): 90 RU; RUligand (APE1 [2]; Conc 704 µM): 118 RU; Ka, fold higher than lucanthone (APE1 [2]; hycanthone vs lucanthone): about 8 fold; kd of full length APE1, fold lower than for lucanthone (APE1 [2]; hycanthone vs lucanthone): ~100 fold
CCN(CC)CCNc1ccc(C)c2sc3ccccc3c(=O)c12 [lucanthone, 1-[2-diethylaminoethylamino]-4-methylthioxanthen-9-one]	induce cleavage of APE1	may have been lower	91 RU	7.76e-05 s⁻¹	878 M⁻¹ s⁻¹	4.053	5.762	0.00	0.071	0.262	0.140	0.125	0.403	De novo APE1 synthesis (APE1 [1]; 10 µg/ml cycloheximide 4 h pretreatment): not affected significantly; Kd (APE1 [2]): 89 nM; RUligand (APE1 [2]; Conc 20 µM): −82 RU; RUligand (APE1 [2]; Conc 40 µM): −26 RU; RUligand (APE1 [2]; Conc 80 µM): 2.5 RU; RUligand (APE1 [2]; Conc 160 µM): 77 RU; RUligand (APE1 [2]; Conc 320 µM): 94 RU; RUligand (APE1 [2]; Conc 640 µM): 62 RU
